Tested on: HEK293T cells stably transfected with 8XTBD luciferase reporter and pRLTK
Assay: YAP Reporter Assay (8XTBD-driven firefly luciferase)
Format: cell-based
Conditions: Homo sapiens, HEK-293T; HEK293T 8XTBD luciferase reporter; 24-hr incubation with compounds; top concentration 3 μM, 10 points
Method: HEK293T cells stably transfected with 8XTBD luciferase reporter and pRLTK in 384-well plates were treated with the test compounds, starting from 3 μM (final concentration in assay plate), 1:3 dilution, and 10 points in quadruplicates. Post 24-hr incubation with compounds at 37° C. and 5% CO2, cells were lysed and 8XTBD-driven firefly luciferase and control TK-driven renilla luciferase activities were measured using Promega Dual-Luciferase Reporter Assay System.
Reagents: The reagents used for this study are: DMEM: Invitrogen #11960077, Dual-Glo Luciferase Assay System: Promega-E2980, Puromycin Dihydrochloride: Invitrogen-A1113803, 384-well plate: PerkinElmer-6007480, L-GLUTAMINE: Invitrogen-25030164, Hygromycin B: Invitrogen-10687010, and Penicillin-Streptomycin: Merk-TMS-AB2-C
Media: The media used for this assay were: Culture Medium: DMEM+1 ug/mL puromycin+200 ug/mL hygromycin (with 10% FBS+1 mM L-glutamine); and Assay Medium: DMEM (with 10% FBS+1 mM L-glutamine+1×P/S).
Cell Plating: The appropriate media was warmed at 37° C. by water bath: Culture Medium, Assay Medium, 1*D-PBS, 0.05% trypsin-EDTA. The cells were trypsinized after removing all media, then washed with 1*sterile D-PBS and then with 2 ml 0.05% trypsin-EDTA. The cells were then incubated at RT for one minute. Then 10 ml/75 cm2 flask Assay Medium was added to each flask. Using a 10 ml pipette, the cells were then gently resuspended in the media, until the clumps completely disappeared. The cells were then transferred into 50 ml centrifuge tubes and were centrifuged at 800 rpm for 5 mins. The medium was removed and the cells were resuspended with Assay Medium. An aliquot of cells was used to count the cell density (cells/ml). The cell suspension was then diluted with Assay Medium to a concentration of 6×10^4 cells/ml. 50 ul cells suspension was then plated to 384-well plate (PerkinElmer-6007480), 3×10^3 cells/well and the cells were incubated in an incubator at 37° C., 5% CO2.
Compound Treatment: In the afternoon (incubation of the plate with 3-4 hrs), the test compounds were added by Echo, starting from 3 uM (final concentration in the assay plate), 1:3 dilution, 10 points, quadruplicates. The plate was placed at 37° C., 5% CO2 incubator for 24 hrs.
Detection: The Dual-Glo Luciferase Reagent was prepared by transferring the contents of one bottle of Dual-Glo Luciferase Buffer to one bottle of Dual-Glo Luciferase Substrate to create the Dual-Glo Luciferase Reagent. Mixing was performed by inversion until the substrate was thoroughly dissolved. After mixing, the reagent was aliquoted into 15 ml tubes. In the afternoon (24 hrs post compound treatment), the DMEM+medium in the 384 well plates were aspirated by Microplate Washer.
Measuring firefly luciferase activity: 20 ul Dual-Glo Luciferase Reagent was added to the 384-well plates. The plates were protected from light to prevent interference with the assay. The plates were shaken for 1 min followed centrifuging plates at 1000 rpm for 30 seconds. After waiting at least 10 minutes, the firefly luminescence was measured by Envision.
Measuring renilla luciferase activity: 20 ul Stop-Glo Reagent was added to the 384-well plates. The plates were shaken for 1 min and then centrifuged at 1000 rpm for 30 seconds. After waiting at least 10 minutes, the renilla luminescence was measured by Envision.
Compound IC50 and maximum inhibition on the firefly luciferase and renilla luciferase activities were reported separately.

Q: For `CC1(c2nnc(-c3cccnc3Nc3ccc(C(F)(F)F)cc3)o2)OCCNC1=O` (centres unmarked) [Compound 37, 2-methyl-2-(5-(2-((4-(trifluoromethyl)phenyl)amino)pyridin-3-yl)-1,3,4-oxadiazol-2-yl)morpholin-3-one], which IC50 is on record?
A: ≤ 100 nM

Q: `C[C@]1(n2nnc(-c3cccnc3Nc3ccc(C(F)(F)F)cc3)n2)CCNC1=O` [Compound 42, (3S)-3-methyl-3-[5-[2-[4-(trifluoromethyl)anilino]-3-pyridyl]tetrazol-2-yl]pyrrolidin-2-one] was tested. Which IC50 did it give?
A: ≤ 100 nM

Q: How did the IC50 turn out when `C[C@]1(c2nnc(-c3cccnc3Nc3ccc(S(F)(F)(F)(F)F)cc3)o2)CCCNC1=O` [Compound 29, (3R)-3-methyl-3-[5-[2-[4-(pentafluoro-λ^6-sulfanyl)anilino]-3-pyridyl]-1,3,4-oxadiazol-2-yl]piperidin-2-one] was run?
A: ≤ 100 nM

Q: How did the IC50 turn out when `CN(C#N)Cc1nnc(-c2nccnc2Nc2ccc(C(F)(F)F)cc2)o1` [Compound 45, methyl-[[5-[3-[4-(trifluoromethyl)anilino]pyrazin-2-yl]-1,3,4-oxadiazol-2-yl]methyl]cyanamide] was run?
A: ≤ 100 nM

Q: How did the IC50 turn out when `CC1(c2nnc(-c3cccnc3Nc3ccc(C(F)(F)F)cc3)o2)CC(N)=NC1=O` (centres unmarked) [Compound 38, 2-amino-4-methyl-4-[5-[2-[4-(trifluoromethyl)anilino]-3-pyridyl]-1,3,4-oxadiazol-2-yl]-3H-pyrrol-5-one] was run?
A: ≤ 100 nM

Q: Which IC50 does the source give for `CN1CCNC(=O)C1(C)c1nnc(-c2cccnc2Nc2ccc(C(F)(F)F)cc2)o1` (centres unmarked) [Compound 25, 3,4-dimethyl-3-[5-[2-[4-(trifluoromethyl)anilino]-3-pyridyl]-1,3,4-oxadiazol-2-yl]piperazin-2-one] here?
A: 100 to 1000 nM

Q: Which IC50 does the source give for `CN(C#N)CCc1nnc(-c2cccnc2Nc2ccc(C(F)(F)F)cc2)o1` [Compound 16, methyl-[2-[5-[2-[4-(trifluoromethyl)anilino]-3-pyridyl]-1,3,4-oxadiazol-2-yl]ethyl]cyanamide] here?
A: ≤ 100 nM

Q: `C[C@@]1(c2nnc(-c3cccnc3Nc3ccc(S(F)(F)(F)(F)F)cc3)o2)CCCNC1=O` [Compound 30, (3S)-3-methyl-3-[5-[2-[4-(pentafluoro-λ^6-sulfanyl)anilino]-3-pyridyl]-1,3,4-oxadiazol-2-yl]piperidin-2-one] was tested. Which IC50 did it give?
A: 100 to 1000 nM

Q: `CCN(Cc1nnc(-c2cccnc2Nc2ccc(C(F)(F)F)cc2)o1)C(=O)OC(C)(C)C` [Compound 8, tert-butyl N-ethyl-N-[[5-[2-[4-(trifluoromethyl)anilino]-3-pyridyl]-1,3,4-oxadiazol-2-yl]methyl]carbamate] was tested. Which IC50 did it give?
A: 1000 to 3000 nM

Q: Which IC50 does the source give for `C[C@@]1(n2nnc(-c3cccnc3Nc3ccc(C(F)(F)F)cc3)n2)CCNC1=O` [Compound 43, (3R)-3-methyl-3-[5-[2-[4-(trifluoromethyl)anilino]-3-pyridyl]tetrazol-2-yl]pyrrolidin-2-one] here?
A: ≤ 100 nM

Q: With `CCN(C#N)Cc1nnc(-c2cccnc2Nc2ccc(C(F)(F)F)cc2)o1` [Compound 5, ethyl-[[5-[2-[4-(trifluoromethyl)anilino]-3-pyridyl]-1,3,4-oxadiazol-2-yl]methyl]cyanamide] as the compound, how does the IC50 read?
A: ≤ 100 nM

Q: For `CC[C@]1(c2nnc(-c3cccnc3Nc3ccc(C(F)(F)F)cc3)o2)CCNC1=O` [Compound 33, (3R)-3-ethyl-3-[5-[2-[4-(trifluoromethyl)anilino]-3-pyridyl]-1,3,4-oxadiazol-2-yl]pyrrolidin-2-one], which IC50 is on record?
A: ≤ 100 nM

Q: How did the IC50 turn out when `CN(C#N)CCc1nnc(-c2nccnc2Nc2ccc(C(F)(F)F)cc2)o1` [Compound 1, methyl-[2-[5-[3-[4-(trifluoromethyl)anilino]pyrazin-2-yl]-1,3,4-oxadiazol-2-yl]ethyl]cyanamide] was run?
A: ≤ 100 nM

Q: How did the IC50 turn out when `C[C@@]1(n2nnc(-c3cccnc3Nc3ccc(S(F)(F)(F)(F)F)cc3)n2)CCNC1=O` [Compound 27, (3R)-3-methyl-3-[5-[2-[4-(pentafluoro-λ^6-sulfanyl)anilino]-3-pyridyl]tetrazol-2-yl]pyrrolidin-2-one] was run?
A: 100 to 1000 nM

Q: `CC[C@@]1(c2nnc(-c3cccnc3Nc3ccc(S(F)(F)(F)(F)F)cc3)o2)CCCNC1=O` [Compound 21, (3S)-3-ethyl-3-[5-[2-[4-(pentafluoro-λ6-sulfanyl)anilino]-3-pyridyl]-1,3,4-oxadiazol-2-yl]piperidin-2-one] was tested. Which IC50 did it give?
A: ≤ 100 nM

Q: With `CC[C@]1(c2nnc(-c3cccnc3Nc3ccc(S(F)(F)(F)(F)F)cc3)o2)CCCNC1=O` [Compound 22, (3R)-3-ethyl-3-[5-[2-[4-(pentafluoro-λ6-sulfanyl)anilino]-3-pyridyl]-1,3,4-oxadiazol-2-yl]piperidin-2-one] as the compound, how does the IC50 read?
A: 100 to 1000 nM

Q: How did the IC50 turn out when `CC1(c2nnc(-c3cccnc3Nc3ccc(C(F)(F)F)cc3)o2)NCCNC1=O` (centres unmarked) [Compound 26, 3-methyl-3-[5-[2-[4-(trifluoromethyl)anilino]-3-pyridyl]-1,3,4-oxadiazol-2-yl]piperazin-2-one] was run?
A: ≤ 100 nM

Q: For `CN(C#N)Cc1nnc(-c2cccnc2Nc2ccc(C(F)(F)F)cc2)o1` [Compound 6, methyl-[[5-[2-[4-(trifluoromethyl)anilino]-3-pyridyl]-1,3,4-oxadiazol-2-yl]methyl]cyanamide], which IC50 is on record?
A: ≤ 100 nM

Q: `CC[C@@]1(c2nnc(-c3cccnc3Nc3ccc(C(F)(F)F)cc3)o2)CCCNC1=O` [Compound 31, (3S)-3-ethyl-3-[5-[2-[4-(trifluoromethyl)anilino]-3-pyridyl]-1,3,4-oxadiazol-2-yl]piperidin-2-one] was tested. Which IC50 did it give?
A: 100 to 1000 nM

Q: Which IC50 does the source give for `CC[C@]1(c2nnc(-c3cccnc3Nc3ccc(S(F)(F)(F)(F)F)cc3)o2)CCNC1=O` [Compound 23, (3R)-3-ethyl-3-[5-[2-[4-(pentafluoro-λ^6-sulfanyl)anilino]-3-pyridyl]-1,3,4-oxadiazol-2-yl]pyrrolidin-2-one] here?
A: 100 to 1000 nM

Q: How did the IC50 turn out when `C[C@@]1(c2nnc(-c3cccnc3Nc3ccc(C(F)(F)F)cc3)o2)CCCNC1=O` [Compound 39, (S)-3-methyl-3-(5-(2-((4-(trifluoromethyl)phenyl)amino)pyridin-3-yl)-1,3,4-oxadiazol-2-yl)piperidin-2-one] was run?
A: ≤ 100 nM

Q: For `CC1(c2nnc(-c3nccnc3Nc3ccc(C(F)(F)F)cc3)o2)CCNC1=O` (centres unmarked) [Compound 20, 3-methyl-3-{5-[3-(4-trifluoromethyl-phenylamino)-pyrazin-2-yl]-[1,3,4]oxadiazol-2-yl}-pyrrolidin-2-one], which IC50 is on record?
A: ≤ 100 nM

Q: For `CC[C@]1(c2nnc(-c3cccnc3Nc3ccc(C(F)(F)F)cc3)o2)CCCNC1=O` [Compound 32, (3R)-3-ethyl-3-[5-[2-[4-(trifluoromethyl)anilino]-3-pyridyl]-1,3,4-oxadiazol-2-yl]piperidin-2-one], which IC50 is on record?
A: ≤ 100 nM

Q: `CC1(c2nnc(-c3cccnc3Nc3ccc(C(F)(F)F)cc3)o2)CCNC1=O` (centres unmarked) [Compound 19, 3-methyl-3-(5-(2-((4-(trifluoromethyl)phenyl)amino)pyridin-3-yl)-1,3,4-oxadiazol-2-yl)pyrrolidin-2-one] was tested. Which IC50 did it give?
A: ≤ 100 nM

Q: How did the IC50 turn out when `C[C@]1(c2nnc(-c3cccnc3Nc3ccc(S(F)(F)(F)(F)F)cc3)o2)CCNC1=O` [Compound 35, (3R)-3-methyl-3-[5-[2-[4-(pentafluoro-λ^6-sulfanyl)anilino]-3-pyridyl]-1,3,4-oxadiazol-2-yl]pyrrolidin-2-one] was run?
A: 100 to 1000 nM

Q: `CCN(C#N)CCc1nnc(-c2cccnc2Nc2ccc(C(F)(F)F)cc2)o1` [Compound 15, ethyl-[2-[5-[2-[4-(trifluoromethyl)anilino]-3-pyridyl]-1,3,4-oxadiazol-2-yl]ethyl]cyanamide] was tested. Which IC50 did it give?
A: ≤ 100 nM

From patent US20230106583A1, “HETEROARYL COMPOUNDS” (Vivace Therapeutics, Inc., priority 2019, published 2023)
